Results taken from the supplement of paper PMC10307832.

Columns and labels:
Assay in all cases: relative viability (nuclei count vs DMSO), 5 days (fraction); higher = more cells survive
[1] = compound: CC(C)C[C@H](NC(=O)[C@H](Cc1ccccc1)NC(=O)c1cnccn1)B(O)O [Bortezomib] + CC(=O)Nc1cccc(-n2c(=O)n(C3CC3)c(=O)c3c(Nc4ccc(I)cc4F)n(C)c(=O)c(C)c32)c1 [Trametinib] (partner 0.02 µM)
Procedure, shortened: (§1)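 Lung cancer cell lines were pin-tool dosed in 1536-well plates on the day after seeding, with either a lone drug or a fixed anchor-drug dose plus five library-drug doses (not always all listed) in √10 steps. Nuclei were counted on 4× images after 5 days. Relative viability is the ratio of treated-well to vehicle-well nuclei counts, with each value a median of duplicate plates.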

[2] = compound: CC(C)C[C@H](NC(=O)[C@H](Cc1ccccc1)NC(=O)c1cnccn1)B(O)O [Bortezomib] + COc1cccc2cc(-c3nc([C@H]4CC[C@H](C(=O)O)CC4)n4ncnc(N)c34)[nH]c12 [OSI-027] (partner 0.5 µM)
Procedure, shortened: as §1

[3] = compound: CC1=CC(=NN1)NC2=CC(=NC(=N2)/C=C/C3=CC=CC=C3)N4CCN(CC4)C + Cc1cc(Nc2cc(N3CCN(C)CC3)nc(Sc3ccc(NC(=O)C4CC4)cc3)n2)n[nH]1 [Tozasertib] (partner 0.1 µM)
Procedure, shortened: as §1

[4] = compound: COC1=CC(c2cc3ccccc3[nH]2)=N/C1=C\c1[nH]c(C)cc1C [Obatoclax] + CS(=O)(=O)CCNCc1ccc(-c2ccc3ncnc(Nc4ccc(OCc5cccc(F)c5)c(Cl)c4)c3c2)o1 [Lapatinib] (partner 2 µM)
Procedure, shortened: as §1

## NCI-H650
[1]; first compound 0.0002 µM
  relative viability: 0.936
[1]; first compound 0.000632 µM
  relative viability: 1.1
[1]; first compound 0.002 µM
  relative viability: 0.857
[1]; first compound 0.006325 µM
  relative viability: 0.361
[1]; first compound 0.02 µM
  relative viability: 0.146
[2]; first compound 0.000632 µM
  relative viability: 0.522
[2]; first compound 0.002 µM
  relative viability: 0.536
[2]; first compound 0.006325 µM
  relative viability: 0.595
[2]; first compound 0.02 µM
  relative viability: 0.207
[3]; first compound 0.253 µM
  relative viability: 0.822
[3]; first compound 0.8 µM
  relative viability: 0.603
[3]; first compound 2.53 µM
  relative viability: 0.4
[3]; first compound 8 µM
  relative viability: 0.173
[4]; first compound 0.01 µM
  relative viability: 1.04
[4]; first compound 0.03162 µM
  relative viability: 0.811
[4]; first compound 0.1 µM
  relative viability: 0.438
[4]; first compound 0.3162 µM
  relative viability: 0.511
[4]; first compound 1 µM
  relative viability: 0.457
